# Reference: patent US10039752B2 (Cipla Limited, priority 2016, dated 2018)
# Read-outs that look alike come from different tables or passages of the source.
# Tests used:
# [1] = system: PAXF 1986L, PAXF 546L, PAXF Capan-2, and PAXF MIA-Pa-Ca-2; experiment: cells; conditions: Homo sapiens, 192 h, read-out: relative IC50 values, range over four cell lines
# Experimental: The clonogenic assay was carried out in a 96 well plate format using ultra low attachment plates. For each test cells were prepared as described above, and assay plates were prepared as follows: each test well contained a layer of semi-solid medium with tumor cells (50 μl), and a second layer of medium supernatant with or without test compounds (100 μl). […] The soft-agar layer was immediately covered with 90 μl of the same culture medium without agar. After 24 hour the test compounds were added after serial dilution in IMDM and transfer in cell culture medium, and left on the cells for the duration of the experiment (continuous exposure, 100 μL total drug overlay). Every plate included six untreated control wells and drug-treated groups in a layout as shown above. […] Within this period, ex vivo tumor growth led to the formation of colonies with a diameter of >50 μm. At the time of maximum colony formation, counts were performed with an automatic image analysis system (CellInsight NXT, Thermo Scientific). 48 hours prior to evaluation, vital colonies were stained with a sterile aqueous solution of 2-(4-iodophenyl)-3-(4-nitrophenyl)-5-phenyltetrazolium chloride (1 mg/ml, 100 μl/well).
# [2] = system: human pancreatic cancer xenografts (PDX model PAXF 546); experiment: In vivo animal efficacy study; parameters: species or system Nude mice; conditions: for Mean Tumor volume: methazolamide 60 mg/kg p.o., gemcitabine 50 mg/kg i.v. Q7D, in mm³; for tumor growth inhibition: methazolamide 60 mg/kg orally, gemcitabine 50 mg/kg i.v.
# PAXF MIA-Pa-Ca-2 [3] = experiment: cells; conditions: Homo sapiens
# Experimental: (§1) Cell lines were routinely passaged one or twice weekly.
# Tumor xenografts (patient-derived, as well as cell line-derived xenografts) were passaged as subcutaneous xenografts in NMRI nu/nu mice. […] The percentage of viable cells was determined in a Neubauer-hemocytometer using trypan blue exclusion. Aliquots of the cells were frozen down, and stored in liquid nitrogen. On each day of an experiment, a frozen aliquot of tumor cells was thawed and used for preparation of assay plates.
# PAXF PANC-1 [4] = experiment: In vitro 2-D assay (CellTiter-Blue cell viability, 96 h); assay type: cell-based; conditions: Homo sapiens, PAXF PANC-1, 96 hours treatment
# Excerpt: (§2) PAXF 546L, PAXF 1986L, PAXF 1998L, PAXF 2005L and PAXF 2059L were established at Oncotest from the corresponding human patient derived xenograft. CAPAN-2, HUP-T3 and PA-TU-8902 were purchased from DSMZ (Braunschweig, Germany). PANC-1 was purchased from CLS Cell Line Services GmbH (Eppelheim, Germany). BxPC-3, HPAC and MIA-Pa-Ca-2 were purchased from ATCC (Rockville, Md., USA). Authenticity of cell lines was confirmed at the DSMZ by STR (short tandem repeat) analysis, a PCR based DNA-fingerprinting methodology. Cell lines were routinely passaged once or twice weekly and maintained in culture for up to 20 passages. All cells were grown at 37° C. in a humidified atmosphere with 5% CO2 in RPMI 1640 medium (25 mM HEPES, with L-glutamine, #FG1385, Biochrom, Berlin, Germany) supplemented with 10% (v/v) fetal calf serum (Sigma, Taufkirchen, Germany) and 0.1 mg/mL gentamicin (Life Technologies, Karlsruhe, Germany).
# (§3) The CellTiter-Blue® Cell Viability Assay (#G8081, Promega) was used according to manufacturer's instructions. Briefly, cells were harvested from exponential phase cultures, counted and plated in 96-well flat-bottom microtiter plates at a cell density of 6,000-20,000 cells/well depending on the cell line's growth rate. After a 24 hours recovery period to allow the cells to resume exponential growth, test compounds were added. […] After 96 hours treatment of cells, 20 μL/well CellTiter-Blue® reagent was added. Following an incubation period of up to four hours, fluorescence (FU) was measured by using the Enspire Multimode Plate Reader (excitation λ=531 nm, emission λ=615 nm). For calculations, the mean values of duplicate/quadruplicate (untreated control) data were used. Sigmoidal concentration-response curves were fitted to the data points (T/C values) obtained for each cell line using 4 parameter non-linear curve fit (Oncotest Warehouse Software).
# PAXF 1998L = experiment: as above; assay type: cell-based; conditions: Homo sapiens, PAXF 1998, 96 hours treatment
# Excerpt: as §2, §3
# PAXF HPAC [5] = experiment: as above; assay type: cell-based; conditions: Homo sapiens, 96 hours treatment
# Excerpt: as §2, §3
# PAXF BxPC-3 [6] = experiment: as above; assay type: cell-based; conditions: Homo sapiens, PAXF BxPC-3, 96 hours treatment
# Excerpt: as §2, §3
# PAXF CAPAN-2 [7] = experiment: as above; assay type: cell-based; conditions: Homo sapiens, PAXF CAPAN-2, 96 hours treatment
# Excerpt: as §2, §3
# PAXF PA-TU-8902 [8] = experiment: as above; assay type: cell-based; conditions: Homo sapiens, PaTu 8902, PAXF PA-TU-8902, 96 hours treatment
# Excerpt: as §2, §3
# PAXF HUP-T3 = experiment: as above; assay type: cell-based; conditions: Homo sapiens, PAXF HUP-T3, 96 hours treatment
# Excerpt: as §2, §3
# PAXF 2005L = experiment: as above; assay type: cell-based; conditions: Homo sapiens, PAXF 2005, 96 hours treatment
# Excerpt: as §2, §3
# PAXF 546L = experiment: as above; assay type: cell-based; conditions: Homo sapiens, PAXF 546, 96 hours treatment
# Excerpt: as §2, §3
# PAXF 1986L = experiment: as above; assay type: cell-based; conditions: Homo sapiens, PAXF 1986, 96 hours treatment
# Excerpt: as §2, §3
# PAXF 2059L = experiment: as above; assay type: cell-based; conditions: Homo sapiens, PAXF 2059, 96 hours treatment
# Excerpt: as §2, §3
# [9] = system: twelve selected human pancreatic cancer cell lines; experiment: cells; conditions: for IC50: Homo sapiens, Pancreatic cancer cell
# Excerpt: as §2, §3
# PAXF MIA-Pa-Ca-2 [10] = experiment: cells; conditions: Homo sapiens, MIA PaCa-2, 96 h
# Excerpt: as §2, §3
# [11] = system: 11 human tumor xenograft-derived cell suspensions or tumor cell lines of pancreatic cancer; experiment: In vitro 3D clonogenic assay, whole panel (geometric mean); assay type: cell-based
# Excerpt: as §1
# PAXF PANC-1 [12] = experiment: In vitro 3D clonogenic assay; assay type: cell-based; conditions: Homo sapiens
# Excerpt: as §1
# PAXF HPAC [13] = experiment: In vitro 3D clonogenic assay; assay type: cell-based; conditions: Homo sapiens
# Excerpt: as §1
# PAXF BxPC-3 [14] = experiment: In vitro 3D clonogenic assay; assay type: cell-based; conditions: Homo sapiens
# Excerpt: as §1
# PAXF CAPAN-2 [15] = experiment: In vitro 3D clonogenic assay; assay type: cell-based; conditions: Homo sapiens
# Excerpt: as §1
# PAXF 546 = experiment: In vitro 3D clonogenic assay; assay type: cell-based; conditions: Homo sapiens
# Excerpt: as §1
# PAXF 2059 = experiment: In vitro 3D clonogenic assay; assay type: cell-based; conditions: Homo sapiens
# Excerpt: as §1
# PAXF PA-TU-8902 [16] = experiment: In vitro 3D clonogenic assay; assay type: cell-based; conditions: Homo sapiens
# Excerpt: as §1
# PAXF 1982 = experiment: In vitro 3D clonogenic assay; assay type: cell-based; conditions: Homo sapiens
# Excerpt: as §1
# PAXF 2005 = experiment: In vitro 3D clonogenic assay; assay type: cell-based; conditions: Homo sapiens
# Excerpt: as §1
# PAXF 1986 = experiment: In vitro 3D clonogenic assay; assay type: cell-based; conditions: Homo sapiens
# Excerpt: as §1
smiles,measurement,setting,value
"Nc1ccn([C@@H]2O[C@H](CO)[C@@H](O)C2(F)F)c(=O)n1 [Gemcitabine, gemcitabine]",IC50,[1],0.013 to 0.062 µM
same,Mean Tumor volume,[2]; day 1,119.84
same,Mean Tumor volume,[2]; day 3,172.26
same,Mean Tumor volume,[2]; day 9,214.28
same,Mean Tumor volume,[2]; day 12,262.19
same,Mean Tumor volume,[2]; day 15,312.84
same,Mean Tumor volume,[2]; day 18,334.59
same,Mean Tumor volume,[2]; day 21,382.57
same,Mean Tumor volume,[2]; day 24,454.56
same,Mean Tumor volume,[2]; day 28,592.69
same,Mean Tumor volume,[2]; day 31,648.88
same,Mean Tumor volume,[2]; day 34,696.91
same,tumor growth inhibition,[2],61%
"CC(=O)N=c1sc(S(N)(=O)=O)nn1C [Methazolamide, N-[5-(aminosulfonyl)-3-methyl-1,3,4-thiadiazol-2(3H)-ylidene]acetamide]",IC50,"PAXF MIA-Pa-Ca-2 [3]; MIA PaCa-2, read-out: Absolute IC50",533 µM
same,IC50,"PAXF MIA-Pa-Ca-2 [3]; MIA PaCa-2, read-out: Relative IC50",489 µM
same,IC50,[1],297 to 806 µM
same,IC50,PAXF PANC-1 [4]; read-out: Absolute IC50,1540 µM
same,IC50,PAXF PANC-1 [4]; read-out: Relative IC50,1590 µM
same,IC50,PAXF 1998L; read-out: Absolute IC50,2510 µM
same,IC50,PAXF 1998L; read-out: Relative IC50,2230 µM
same,IC50,PAXF HPAC [5]; read-out: Absolute IC50,5350 µM
same,IC50,PAXF HPAC [5]; read-out: Relative IC50,5510 µM
same,IC50,PAXF BxPC-3 [6]; read-out: Absolute IC50,1960 µM
same,IC50,PAXF BxPC-3 [6]; read-out: Relative IC50,2340 µM
same,IC50,PAXF CAPAN-2 [7]; read-out: Absolute IC50,2030 µM
same,IC50,PAXF CAPAN-2 [7]; read-out: Relative IC50,2040 µM
same,IC50,PAXF PA-TU-8902 [8]; read-out: Absolute IC50,1030 µM
same,IC50,PAXF PA-TU-8902 [8]; read-out: Relative IC50,1130 µM
same,IC50,PAXF HUP-T3; read-out: Absolute IC50,726 µM
same,IC50,PAXF HUP-T3; read-out: Relative IC50,711 µM
same,IC50,PAXF 2005L; read-out: Absolute IC50,1840 µM
same,IC50,PAXF 2005L; read-out: Relative IC50,1580 µM
same,IC50,PAXF 546L; read-out: Absolute IC50,2320 µM
same,IC50,PAXF 546L; read-out: Relative IC50,3050 µM
same,IC50,PAXF 1986L; read-out: Absolute IC50,1850 µM
same,IC50,PAXF 1986L; read-out: Relative IC50,1670 µM
same,IC50,PAXF 2059L; read-out: Absolute IC50,2040 µM
same,IC50,PAXF 2059L; read-out: Relative IC50,1790 µM
same,"activity, shape of concentration-effect curves","[9]; 2-D, all cell lines tested",concentration-dependent activity with sigmoidal concentration-effect curves
same,IC50,"[9]; read-out: Absolute IC50, Geometric Mean",1840 µM
same,IC50,"[9]; read-out: Individual IC50 values, range over cell lines",726 to 5350 µM
same,IC50,"[9]; read-out: Relative IC50, Geometric Mean",1880 µM
same,IC50,PAXF MIA-Pa-Ca-2 [10]; read-out: Absolute IC50,1520 µM
same,IC50,PAXF MIA-Pa-Ca-2 [10]; read-out: Relative IC50,1760 µM
same,Mean Tumor volume,[2]; day 1,94.47
same,Mean Tumor volume,[2]; day 3,121.60
same,Mean Tumor volume,[2]; day 9,151.64
same,Mean Tumor volume,[2]; day 12,189.82
same,Mean Tumor volume,[2]; day 15,253.64
same,Mean Tumor volume,[2]; day 18,341.73
same,Mean Tumor volume,[2]; day 21,470.79
same,Mean Tumor volume,[2]; day 24,583.90
same,Mean Tumor volume,[2]; day 28,718.08
same,Mean Tumor volume,[2]; day 31,836.82
same,Mean Tumor volume,[2]; day 34,916.02
same,tumor growth inhibition,[2],up to 50%
same,IC50,"[11]; read-out: Absolute IC50, Geometric mean",777 µM
same,IC50,"[11]; read-out: Relative IC50, Geometric mean",783 µM
same,IC50,PAXF PANC-1 [12]; read-out: Absolute IC50,1760 µM
same,IC50,PAXF PANC-1 [12]; read-out: Relative IC50,1820 µM
same,IC50,PAXF HPAC [13]; read-out: Absolute IC50,1360 µM
same,IC50,PAXF HPAC [13]; read-out: Relative IC50,1090 µM
same,IC50,PAXF BxPC-3 [14]; read-out: Absolute IC50,837 µM
same,IC50,PAXF BxPC-3 [14]; read-out: Relative IC50,808 µM
same,IC50,PAXF CAPAN-2 [15]; read-out: Absolute IC50,568 µM
same,IC50,PAXF CAPAN-2 [15]; read-out: Relative IC50,620 µM
same,IC50,"PAXF 546; PAXF546, read-out: Absolute IC50",346 µM
same,IC50,"PAXF 546; PAXF546, read-out: Relative IC50",336 µM
same,IC50,PAXF 2059; read-out: Absolute IC50,820 µM
same,IC50,PAXF 2059; read-out: Relative IC50,754 µM
same,IC50,"PAXF PA-TU-8902 [16]; PaTu 8902, read-out: Absolute IC50",2110 µM
same,IC50,"PAXF PA-TU-8902 [16]; PaTu 8902, read-out: Relative IC50",2580 µM
same,IC50,PAXF 1982; read-out: Absolute IC50,703 µM
same,IC50,PAXF 1982; read-out: Relative IC50,725 µM
same,IC50,PAXF 2005; read-out: Absolute IC50,523 µM
same,IC50,PAXF 2005; read-out: Relative IC50,603 µM
same,IC50,PAXF 1986; read-out: Absolute IC50,464 µM
same,IC50,PAXF 1986; read-out: Relative IC50,486 µM
